Experiments:
[1] = molecular target: T1, Peroxisome proliferator-activated receptor delta (Homo sapiens, UniProt Q03181)
T1 sequence (Q03181 whole entry): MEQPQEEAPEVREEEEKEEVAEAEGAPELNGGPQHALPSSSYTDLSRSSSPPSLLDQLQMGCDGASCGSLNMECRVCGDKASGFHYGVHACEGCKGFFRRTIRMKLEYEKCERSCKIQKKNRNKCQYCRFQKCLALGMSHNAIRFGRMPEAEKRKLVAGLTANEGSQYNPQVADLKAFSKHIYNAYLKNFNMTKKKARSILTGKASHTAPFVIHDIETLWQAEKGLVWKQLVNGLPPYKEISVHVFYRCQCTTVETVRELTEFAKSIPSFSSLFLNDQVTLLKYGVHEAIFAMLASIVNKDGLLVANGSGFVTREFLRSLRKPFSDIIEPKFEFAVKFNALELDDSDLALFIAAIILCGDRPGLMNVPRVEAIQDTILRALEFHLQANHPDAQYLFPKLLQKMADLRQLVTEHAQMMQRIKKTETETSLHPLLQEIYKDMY

[2] = Oral bioavailability in Balb/c mouse at 10 mg/kg daily; conditions: in vivo
[3] = molecular target: T2, Peroxisome proliferator-activated receptor alpha (Homo sapiens) (UniProt Q07869); assay: Agonist activity at human PPARalpha ligand binding domain expressed in human 293T cells co-transfected with Gal4-DBD by luciferase transactivation assay relative to KRP297; format: cell-based
T2 sequence (whole entry): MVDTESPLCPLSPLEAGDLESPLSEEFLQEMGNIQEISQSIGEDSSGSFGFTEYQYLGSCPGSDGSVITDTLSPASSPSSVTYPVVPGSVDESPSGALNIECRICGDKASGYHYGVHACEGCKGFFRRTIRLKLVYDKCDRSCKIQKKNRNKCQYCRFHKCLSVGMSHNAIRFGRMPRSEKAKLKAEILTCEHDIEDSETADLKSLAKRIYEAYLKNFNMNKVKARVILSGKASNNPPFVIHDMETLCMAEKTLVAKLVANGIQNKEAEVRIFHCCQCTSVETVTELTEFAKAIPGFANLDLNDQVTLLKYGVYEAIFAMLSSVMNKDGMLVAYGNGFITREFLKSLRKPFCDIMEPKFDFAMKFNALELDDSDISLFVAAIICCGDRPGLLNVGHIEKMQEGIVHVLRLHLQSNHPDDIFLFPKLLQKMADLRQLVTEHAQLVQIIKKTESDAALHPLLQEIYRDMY

[4] = molecular target: T3, Peroxisome proliferator-activated receptor alpha (Homo sapiens, UniProt Q07869); assay: Agonist activity at human PPARalpha ligand binding domain expressed in human 293T cells co-transfected with Gal4-DBD by luciferase transactivation assay; format: cell-based; conditions: read-out: EC50
T3 sequence (Q07869 whole entry): T2 sequence (whole entry)

[5] = AUC ((0 to 24 hrs)) in Balb/c mouse at 10 mg/kg, po qd; conditions: plasma
[6] = Cmax in Balb/c mouse at 10 mg/kg, po qd; conditions: in vivo
[7] = molecular target: T4, Peroxisome proliferator-activated receptor gamma (Homo sapiens, UniProt P37231); format: cell-based, 293T; conditions: read-out: EC50
T4 sequence (P37231 whole entry): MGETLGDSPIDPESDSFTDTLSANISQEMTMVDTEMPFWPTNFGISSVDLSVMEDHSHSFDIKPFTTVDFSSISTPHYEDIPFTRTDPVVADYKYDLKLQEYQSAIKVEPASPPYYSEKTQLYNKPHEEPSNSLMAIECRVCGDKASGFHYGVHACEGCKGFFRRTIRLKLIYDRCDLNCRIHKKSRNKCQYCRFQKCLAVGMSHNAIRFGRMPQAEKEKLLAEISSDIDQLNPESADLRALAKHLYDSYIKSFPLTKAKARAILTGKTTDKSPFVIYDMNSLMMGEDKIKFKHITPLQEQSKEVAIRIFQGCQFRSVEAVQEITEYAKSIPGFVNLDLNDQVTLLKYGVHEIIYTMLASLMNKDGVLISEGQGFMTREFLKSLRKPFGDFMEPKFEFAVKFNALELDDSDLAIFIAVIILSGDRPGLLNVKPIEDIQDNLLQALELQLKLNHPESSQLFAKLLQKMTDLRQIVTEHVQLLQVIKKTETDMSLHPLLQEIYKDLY

[8] = Half life in Balb/c mouse at 10 mg/kg, po qd; conditions: in vivo
[9] = molecular target: Peroxisome proliferator-activated receptor delta (Homo sapiens) (UniProt Q03181); assay: Agonist activity at human PPARdelta by FRET assay
Mus musculus [10] = assay: Upregulation of PDK4 expression in C57BL/6 mouse at 10 mg/kg, po qd relative to control; format: functional
Mus musculus [11] = assay: Upregulation of UCP3 expression in C57BL/6 mouse at 10 mg/kg, po qd relative to control; format: functional
[12] = molecular target: T1, Peroxisome proliferator-activated receptor delta; remark: listed apart in the source

Row | Compound | EC50 [1] [nM] | bioavailability [2] [%] | Efficacy [3] [%] | EC50 [4] [nM] | AUC at 24 h [5] [µM·h] | Cmax [6] [nM] | EC50 [7] [µM] | half-life [8] [min] | EC50 [9] [nM] | fold change (FC) (Mus musculus [10]) | fold change (FC) (Mus musculus [11]) | EC50 [12] [nM]
1 | Cc1cc(OCc2nc(-c3ccc(N4CCOCC4)nc3)c(-c3ccc(OC(F)(F)F)cc3)o2)ccc1OCC(=O)O | 2 | 18 | 46 | 1200 | 1.95 | 700 | 2.49 | 228 | 5 | – | – | –
2 | CCOC(Cc1ccc(OCc2nc(-c3ccc(OC)cc3)c(-c3ccc(C(F)(F)F)cc3)s2)cc1)C(=O)O (stereo not drawn) | 1870 | – | 37 | 1090 | – | – | 1.31 | – | – | – | – | –
3 | Cc1cc(SCc2sc(-c3ccc(C(F)(F)F)cc3)nc2C)ccc1OCC(=O)O [GW501516] | – | – | – | – | 29.8 | 3900 | – | 264 | – | 2.5 | 3.2 | –
4 | Cc1cc(OCc2nc(-c3ccc(N4CCOCC4)cc3)c(-c3ccc(-c4ccccc4)cc3)s2)ccc1OCC(=O)O | 18 | 30 | – | – | 31.9 | 2700 | – | 306 | 72 | 1.4 | 2.5 | 14
5 | Cc1cc(OCc2nc(-c3cnc(OC(C)C)nc3)c(-c3ccc(OC(F)(F)F)cc3)s2)ccc1OCC(=O)O | 6 | 88 | – | > 10000 | 20.1 | 3500 | > 10 | 138 | 10 | 1.6 | 1.5 | 14
6 | Cc1cc(OCc2nc(-c3ccc(N4CCCCC4)cc3)c(-c3ccc(OC(F)(F)F)cc3)s2)ccc1OCC(=O)O | 52 | – | 9 | 5200 | – | – | > 10 | – | – | – | – | –
7 | Cc1cc(OCc2nc(-c3ccc(-c4ccccc4)cc3)cs2)ccc1OCC(=O)O | 340 | – | 42 | 480 | – | – | > 10 | – | – | – | – | –
8 | Cc1cc(OCc2nc(-c3ccc(OC(C)C)cc3)c(-c3ccc(C(F)(F)F)cc3)s2)ccc1OCC(=O)O | 11 | 70 | – | – | 37.3 | 2800 | – | 234 | 20 | 1.1 | 1.7 | 16
9 | Cc1cc(OCc2nc(-c3cccnc3)c(-c3ccc(-c4ccccc4)cc3)o2)ccc1OCC(=O)O | 8 | 10 | – | – | 0.814 | 400 | – | 240 | 30 | – | – | 6
10 | CCCc1ccc(-c2oc(COc3ccc(OCC(=O)O)c(C)c3)nc2-c2cnc(OC)nc2)cc1 | 9 | 41 | – | – | 6.42 | 2200 | – | 162 | 30 | 2 | 2.5 | 10
11 | Cc1cc(OCc2nc(-c3ccc(OC(C)C)cc3)c(-c3ccc(OC(F)(F)F)cc3)s2)ccc1OCC(=O)O | 7 | 88 | – | > 10000 | 54.1 | 3700 | > 10 | 540 | 26 | 1.9 | 2.4 | 10
12 | Cc1cc(OCc2nc(-c3cnc(N4CCOCC4)nc3)c(-c3ccc(OC(F)(F)F)cc3)o2)ccc1OCC(=O)O | 1 | – | 69 | 410 | – | – | 1.03 | – | – | – | – | –
13 | CCCc1ccc(-c2sc(COc3ccc(OCC(=O)O)c(C)c3)nc2-c2ccc(OC(C)C)cc2)cc1 | 11 | – | – | – | – | – | – | – | 17 | – | – | 13
14 | Cc1cc(OCc2nc(-c3ccc(OC(C)C)cc3)c(-c3cccc(OC(F)(F)F)c3)s2)ccc1OCC(=O)O | 9 | 49 | – | – | 20.3 | 2400 | – | 192 | 46 | 1.7 | 1.9 | 16
15 | Cc1cc(OCc2nc(-c3ccc(C(=O)N(C)C(C)C)cc3)c(-c3ccc(OC(F)(F)F)cc3)o2)ccc1OCC(=O)O | 1 | – | 49 | 700 | – | – | 0.6 | – | – | – | – | –
16 | Cc1cc(OCc2nc(-c3cnc(N4CCOCC4)nc3)c(-c3ccc(OC(F)(F)F)cc3)s2)ccc1OCC(=O)O | 3 | – | 38 | 1990 | – | – | > 10 | – | – | – | – | –
17 | Cc1cc(OCc2nc(-c3ccc(C(=O)N4CCCCC4)cc3)c(-c3ccc(OC(F)(F)F)cc3)s2)ccc1OCC(=O)O | 6 | – | 55 | 1590 | – | – | 1.56 | – | – | – | – | –
18 | Cc1cc(OCc2nc(-c3ccc(OC(C)C)cc3)c(-c3ccc(-c4ccccc4)cc3)s2)ccc1OCC(=O)O | 9 | – | – | – | – | – | – | – | 29 | 1.5 | 2.4 | 10
19 | COc1ccc(-c2csc(COc3ccc(OCC(=O)O)c(C)c3)n2)cc1 | 4060 | – | 5 | 4080 | – | – | > 10 | – | – | – | – | –
20 | COc1ccc(-c2nc(SCCCCOc3ccc(OCC(=O)O)c(C)c3)sc2-c2ccc(OC)cc2)cc1 | > 10000 | – | 89 | 2370 | – | – | 6.36 | – | – | – | – | –
21 | Cc1cc(OCc2nc(-c3cnc(OC(C)C)nc3)c(-c3ccc(OC(F)(F)F)cc3)o2)ccc1OCC(=O)O | 1 | – | 82 | 160 | – | – | 0.98 | – | – | – | – | –
22 | COc1ccc(-c2nc(SCCOc3ccc(OCC(=O)O)c(C)c3)sc2-c2ccc(OC)cc2)cc1 | > 10000 | – | 64 | 5350 | – | – | 5.66 | – | – | – | – | –
23 | COc1ccc(-c2nc(SCCCOc3ccc(OCC(=O)O)c(C)c3)sc2-c2ccc(OC)cc2)cc1 | > 10000 | – | 62 | 5250 | – | – | 6.89 | – | – | – | – | –
24 | Cc1cc(OCc2nc(-c3ccc(C(=O)N4CCCCC4)cc3)c(-c3ccc(OC(F)(F)F)cc3)o2)ccc1OCC(=O)O | 18 | – | 43 | 1150 | – | – | > 10 | – | – | – | – | –
25 | CCCc1ccc(-c2sc(COc3ccc(OCC(=O)O)c(C)c3)nc2-c2ccc(OC)cc2)cc1 | 510 | – | – | > 10000 | – | – | > 10 | – | – | – | – | –
26 | COc1ccc(-c2nc(COc3ccc(OCC(=O)O)c(C)c3)sc2-c2cnc3ccccc3c2)cc1 | 80 | – | – | > 10000 | – | – | > 10 | – | – | – | – | –
27 | COc1ccc(-c2nc(COc3ccc(OCC(=O)O)c(C)c3)sc2/C=C/c2ccccc2)cc1 | 110 | – | – | > 10000 | – | – | > 10 | – | – | – | – | –
28 | Cc1cc(OCc2nc(-c3ccc(C(F)(F)F)cc3)cs2)ccc1OCC(=O)O | 1390 | – | – | > 10000 | – | – | > 10 | – | – | – | – | –
29 | Cc1cc(OCc2nc(-c3ccc(Cl)cc3)c(-c3ccc(Cl)cc3)s2)ccc1OCC(=O)O | 510 | – | – | > 10000 | – | – | > 10 | – | – | – | – | –
30 | Cc1cc(OCc2nc(-c3ccc(C(=O)N(C)C(C)C)cc3)c(-c3ccc(OC(F)(F)F)cc3)s2)ccc1OCC(=O)O | 2 | – | 65 | 690 | – | – | 1.2 | – | – | – | – | –
